The assay deals with T1, CSF1R (FMS) (Homo sapiens, UniProt P07333).
T1 construct: purchased Thermo Fisher Scientific (Life Technologies) SelectScreen
As to the kind of experiment: SelectScreen Z'LYTE. The class given is biochemical. In outline:
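NU5455 was profiled across the SelectScreen Broad panel of kinase activity and binding assays. Z'LYTE reactions such as CSF1R ran at apparent Km ATP, while the Adapta CAMK1 assay used ATP listed as 10. Values are given as percent.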

SMILES strings stand for the structures.

T1 sequence (P07333 20-972): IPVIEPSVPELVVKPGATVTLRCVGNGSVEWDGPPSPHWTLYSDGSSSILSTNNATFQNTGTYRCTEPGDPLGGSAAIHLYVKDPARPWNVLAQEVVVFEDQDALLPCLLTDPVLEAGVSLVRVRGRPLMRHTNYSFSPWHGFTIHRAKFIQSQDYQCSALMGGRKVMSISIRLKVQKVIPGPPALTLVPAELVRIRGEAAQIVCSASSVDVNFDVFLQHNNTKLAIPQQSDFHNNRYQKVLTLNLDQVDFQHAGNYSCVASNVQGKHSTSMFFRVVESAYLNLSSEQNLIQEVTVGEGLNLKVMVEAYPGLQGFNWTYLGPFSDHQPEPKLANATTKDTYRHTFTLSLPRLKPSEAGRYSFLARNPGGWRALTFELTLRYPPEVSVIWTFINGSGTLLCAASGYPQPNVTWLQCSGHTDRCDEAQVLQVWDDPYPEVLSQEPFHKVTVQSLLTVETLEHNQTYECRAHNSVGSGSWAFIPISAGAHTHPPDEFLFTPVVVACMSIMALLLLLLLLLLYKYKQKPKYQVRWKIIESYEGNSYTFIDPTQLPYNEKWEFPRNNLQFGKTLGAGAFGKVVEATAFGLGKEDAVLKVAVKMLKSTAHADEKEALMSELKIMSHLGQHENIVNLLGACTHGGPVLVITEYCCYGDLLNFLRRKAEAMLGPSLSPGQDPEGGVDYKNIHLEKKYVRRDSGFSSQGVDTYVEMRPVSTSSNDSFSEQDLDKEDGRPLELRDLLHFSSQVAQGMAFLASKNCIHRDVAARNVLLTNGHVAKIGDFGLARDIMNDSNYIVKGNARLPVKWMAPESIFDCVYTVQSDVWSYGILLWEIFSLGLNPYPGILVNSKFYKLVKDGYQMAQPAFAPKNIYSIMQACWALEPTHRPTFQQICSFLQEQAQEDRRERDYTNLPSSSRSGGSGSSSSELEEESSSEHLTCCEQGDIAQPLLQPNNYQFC

The compound `CN(C(=O)CN1CCOCC1)c1ccc2sc3c(-c4cccc5c(=O)cc(N6CC7CCC(C6)O7)oc45)cccc3c2c1` [NU5455] displayed an inhibition at 1 µM of 4.3%.

(Values after publication PMC6934184, “Selective DNA-PKcs inhibition extends the therapeutic index of localized radiotherapy and chemotherapy” (The Journal of Clinical Investigation, 2019).)
